Test results taken from doi:10.1101/2025.11.18.689095 (bioRxiv, 2025).
Where no end group is shown, it is not given here.

How the values were obtained:
[1] = biological target: T1, Tom70:Orf9bHelix complex (Homo sapiens, UniProt O94826); assay: biochemical; type: binding, human Tom70; SARS-CoV-2 Orf9b
T1 construct: human Tom70 (residues 108–608); Avi tag (N, cleaved yes); His6 tag (N, cleaved yes); (GGS)5 linker and TEV cleavage site (N, cleaved yes); host or cells: E. coli BL21 (DE3) for Tom70; synthetic peptide

[2] = biological target: T2, human Tom70 (residues 108–608) (Homo sapiens, UniProt O94826); assay: ITC, Hsp90EEVD peptide binding to free Tom70; details: 20°C, pH 8, 150 mM NaCl, 2 mM TCEP, 10% glycerol, Hsp90EEVD (400–500 μM) into Tom70 (30 μM), mean ± SD of 3 measurements, read-out: KD of Hsp90EEVD to Tom70 alone
T2 construct: human Tom70 (residues 108–608); Avi tag (N, cleaved yes); His6 tag (N, cleaved yes); (GGS)5 linker and TEV cleavage site (N, cleaved yes); made in house; host or cells: E. coli BL21 (DE3)
T2 sequence (O94826 108-608): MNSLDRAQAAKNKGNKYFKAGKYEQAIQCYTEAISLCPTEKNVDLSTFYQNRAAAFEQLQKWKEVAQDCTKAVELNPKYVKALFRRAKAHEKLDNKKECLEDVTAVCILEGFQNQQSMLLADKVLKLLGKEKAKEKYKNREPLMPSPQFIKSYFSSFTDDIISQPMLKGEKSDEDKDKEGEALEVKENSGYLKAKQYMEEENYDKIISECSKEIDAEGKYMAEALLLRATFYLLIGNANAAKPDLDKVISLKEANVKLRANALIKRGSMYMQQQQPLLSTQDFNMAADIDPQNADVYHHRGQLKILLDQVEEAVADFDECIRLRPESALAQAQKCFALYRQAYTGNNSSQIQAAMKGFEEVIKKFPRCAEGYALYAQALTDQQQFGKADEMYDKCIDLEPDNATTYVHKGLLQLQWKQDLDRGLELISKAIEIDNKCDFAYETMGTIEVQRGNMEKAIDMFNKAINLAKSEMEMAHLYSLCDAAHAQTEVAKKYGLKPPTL
Protocol: (§1) All ITC experiments were recorded at 20°C using a Microcal-PEAQ-ITC calorimeter (Malvern Panalytical). Experiments involving full-length Hsp90 or the Hsp90EEVD peptide were carried out in buffer containing 20 mM sodium phosphate (pH 8), 150 mM NaCl, 2 mM TCEP, and 10% glycerol. 10% glycerol was required to prevent precipitation of Hsp90 during titration.
(§2) Unbound Orf9bHelix was removed via multiple rounds of concentration and buffer exchange on a concentrator (Vivaspin 20, Satorius). Orf9b truncation mutant complexes were produced in the same way. Experiments involving the binding of Orf9bHelix titrated into Tom70 were carried out in buffer containing 20 mM sodium phosphate (pH 7), 100 mM NaCl, and 2 mM TCEP. Orf9bHelix (120 μM) was titrated into 15 μM Tom70 or Tom70:Hsp90EEVD complex (15 μM Tom70: 400 μM Hsp90EEVD).
(§3) All data was fit using a 1:1 binding model to obtain the reported thermodynamic parameters using the software provided by the instrument. Reported parameters are the average and standard deviation of individual runs of the experiment, as outlined in supplementary information (Figs S3 and S9).

[3] = biological target: Tom70:Orf9b complex; set-up: species or system human Tom70; SARS-CoV-2 Orf9b; details: read-out: binding affinity (KD) of full-length Hsp90 to Tom70:Orf9b complex; pH 8
[4] = biological target: T2, human Tom70 (residues 108–608); assay: ITC, Hsp90 binding to free Tom70
Protocol: as §1, §2, §3

[5] = test system: Tom70:Orf9b complex; type: binding, human Tom70; SARS-CoV-2 Orf9b
[6] = test system: Tom70; assay: BLI kinetics, Hsp90 with free Tom70; type: binding, human
Protocol: We therefore indirectly estimated kon values by combining koff values obtained from BLI with KD values determined by ITC, i.e., kon=koffBLI/KDITC .
Biotinylated Hsp90 proteins were immobilized onto streptavidin biosensor probes, and experiments were conducted in buffer containing 20 mM sodium phosphate (pH 7), 150 mM NaCl, 1% BSA, 0.6 M sucrose, and 1 mM TCEP[68]. […] To combat heterogenous binding, dissociation curves were fit with a two-phase exponential curve. Due to the association rate (kon) being too rapid to quantify, kon values were indirectly estimated by combining koff values obtained from BLI with KD values determined by ITC ( kon=koffBLI/KDITC ). All data are corrected for non-specific binding. Error is given as the standard deviation of at least two measurements.

[7] = biological target: T1, Tom70:Orf9bHelix complex; type: binding, human Tom70; SARS-CoV-2 Orf9b; details: pH 8

T1 sequence (P0DTD2 44-77 partner limits assumed, one chain of several): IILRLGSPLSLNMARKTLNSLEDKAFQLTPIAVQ

Substance | Kd [1] | Kd [2] | Kd [3] | Kd ([4]; 20°C, 20 mM sodium phosphate pH 8, 150 mM NaCl, 2 mM TCEP, 10% glycerol, Tom70 (400 μM) into Hsp90 (20 μM), 1:1 model, mean ± SD of 3 measurements, read-out: binding affinity (KD) of full-length Hsp90 to free Tom70) | thermodynamic signature of binding to free Tom70 ([4]; 20°C, pH 8, Fig 5C) | affinity of full-length Hsp90 to free Tom70 relative to Hsp90EEVD peptide ([4]; higher affinity than the Hsp90EEVD peptide) | kon for Hsp90 binding to Tom70 in presence of bound full-length Orf9b [5] | association rate of Hsp90 to free Tom70 (BLI, direct) ([6]; BLI, 25°C, pH 7, 150 mM NaCl, 1% BSA, 0.6 M sucrose, 1 mM TCEP, Hsp90 immobilized) | kon for Hsp90 binding to free Tom70 ([6]; indirectly estimated, kon = koff(BLI)/KD(ITC), BLI 25°C pH 7, ITC 20°C pH 8, SD of at least two measurements) | thermodynamic signature of binding to Tom70-Orf9bHelix complex [7]
YDTSRMEEVD [Hsp90EEVD] | 12 ± 1 µM | 12 ± 1 µM | – | – | – | – | – | – | – | –
Hsp90: human Hsp90α (residues 1–732), expressed in E. coli | – | – | 22 ± 1 µM | 3000 ± 1000 nM | a favorable entropy change was the major driving force | 4 fold | 0.02 ± 0.01 µM⁻¹ s⁻¹ | too rapid to quantify accurately | 0.5 ± 0.2 µM⁻¹ s⁻¹ | driven entirely by a favorable enthalpy change
